Assay results reported in PubChem BioAssay AID1963980 (Molecular Pharmacology Branch, DTP, NCI, 2024).

System: 475296-252-R-J1-PDC spheroid viability
Assay: Anticancer human tumor 475296-252-R-J1-PDC patient-derived rectal carcinoma cell line growth inhibition [PI3K]
Conditions: spheroids with HUVEC and MSC; for IC50: curve of first compound; for viability, T/C: stronger effect = lower value
Outline: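 Three cell types, namely tumor cells, endothelial cells and mesenchymal stem cells, formed each spheroid. Combinations with four PI3K inhibitors were screened at clinically achievable concentrations decreasing by half-log, and spheroid viability was recorded.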

[1] = second compound 0.0316 µM, first compound 0.000316 µM
[2] = second compound 0.0316 µM, first compound 0.001 µM
[3] = second compound 0.0316 µM, first compound 0.00316 µM
[4] = second compound 0.0316 µM, first compound 0.01 µM
[5] = second compound 0.0316 µM, first compound 0.0316 µM
[6] = second compound 0.0316 µM, first compound 0.1 µM
[7] = second compound 0.1 µM, first compound 0.000316 µM
[8] = second compound 0.1 µM, first compound 0.001 µM
[9] = second compound 0.1 µM, first compound 0.00316 µM
[10] = second compound 0.1 µM, first compound 0.01 µM
[11] = second compound 0.1 µM, first compound 0.0316 µM
[12] = second compound 0.1 µM, first compound 0.1 µM
[13] = second compound 0.316 µM, first compound 0.000316 µM
[14] = second compound 0.316 µM, first compound 0.001 µM
[15] = second compound 0.316 µM, first compound 0.00316 µM
[16] = second compound 0.316 µM, first compound 0.01 µM
[17] = second compound 0.316 µM, first compound 0.0316 µM
[18] = second compound 0.316 µM, first compound 0.1 µM
[19] = second compound 1 µM, first compound 0.000316 µM
[20] = second compound 1 µM, first compound 0.001 µM
[21] = second compound 1 µM, first compound 0.00316 µM
[22] = second compound 1 µM, first compound 0.01 µM
[23] = second compound 1 µM, first compound 0.0316 µM
[24] = second compound 1 µM, first compound 0.1 µM
[25] = second compound 3.16 µM, first compound 0.000316 µM
[26] = second compound 3.16 µM, first compound 0.001 µM
[27] = second compound 3.16 µM, first compound 0.00316 µM
[28] = second compound 3.16 µM, first compound 0.01 µM
[29] = second compound 3.16 µM, first compound 0.0316 µM
[30] = second compound 3.16 µM, first compound 0.1 µM
[31] = second compound 10 µM, first compound 0.000316 µM
[32] = second compound 10 µM, first compound 0.001 µM
[33] = second compound 10 µM, first compound 0.00316 µM
[34] = second compound 10 µM, first compound 0.01 µM
[35] = second compound 10 µM, first compound 0.0316 µM
[36] = second compound 10 µM, first compound 0.1 µM
[37] = second compound 0.0316 µM, first compound 0.316 µM
[38] = second compound 0.0316 µM, first compound 1 µM
[39] = second compound 0.0316 µM, first compound 3.16 µM
[40] = second compound 0.0316 µM, first compound 10 µM
[41] = second compound 0.1 µM, first compound 0.316 µM
[42] = second compound 0.1 µM, first compound 1 µM
[43] = second compound 0.1 µM, first compound 3.16 µM
[44] = second compound 0.1 µM, first compound 10 µM
[45] = second compound 0.316 µM, first compound 0.316 µM
[46] = second compound 0.316 µM, first compound 1 µM
[47] = second compound 0.316 µM, first compound 3.16 µM
[48] = second compound 0.316 µM, first compound 10 µM
[49] = second compound 1 µM, first compound 0.316 µM
[50] = second compound 1 µM, first compound 1 µM
[51] = second compound 1 µM, first compound 3.16 µM
[52] = second compound 1 µM, first compound 10 µM
[53] = second compound 3.16 µM, first compound 0.316 µM
[54] = second compound 3.16 µM, first compound 1 µM
[55] = second compound 3.16 µM, first compound 3.16 µM
[56] = second compound 3.16 µM, first compound 10 µM
[57] = second compound 10 µM, first compound 0.316 µM
[58] = second compound 10 µM, first compound 1 µM
[59] = second compound 10 µM, first compound 3.16 µM
[60] = second compound 10 µM, first compound 10 µM
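Also: spheroids exposed to agents for seven days before readout.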

`CC(=O)c1c(C)c2cnc(Nc3ccc(N4CCNCC4)cn3)nc2n(C2CCCC2)c1=O` + CC(Nc1ncnc2nc[nH]c12)c1cc2cccc(Cl)c2c(=O)n1-c1ccccc1 was tested, and the IC50 (second compound 0.0316 µM) was over 0.1 µM, the IC50 (second compound 0.1 µM) was over 0.1 µM and the IC50 (second compound 0.316 µM) was over 0.1 µM. For the same compound, the IC50 (second compound 1 µM) was over 0.1 µM, the IC50 (second compound 3.16 µM) was over 0.1 µM and the IC50 (second compound 10 µM) was over 0.1 µM. It also gave a viability, T/C [1] of 91.8%, a viability, T/C [2] of 91.4% and a viability, T/C [3] of 87.8%. It also gave a viability, T/C [4] of 94.2%, a viability, T/C [5] of 96% and a viability, T/C [6] of 102%. For the same compound, the viability, T/C [7] was 97.4%, the viability, T/C [8] was 106% and the viability, T/C [9] was 94.4%. It also gave a viability, T/C [10] of 85.8%, a viability, T/C [11] of 105% and a viability, T/C [12] of 112%. It also gave a viability, T/C [13] of 105%, a viability, T/C [14] of 89.7% and a viability, T/C [15] of 104%. The viability, T/C [16] was 97.2%, the viability, T/C [17] was 104% and the viability, T/C [18] was 101%. For the same compound, the viability, T/C [19] was 99.9%, the viability, T/C [20] was 109% and the viability, T/C [21] was 84.1%. It also gave a viability, T/C [22] of 95.3%, a viability, T/C [23] of 107% and a viability, T/C [24] of 112%. For the same compound, the viability, T/C [25] was 99.2%, the viability, T/C [26] was 86.5% and the viability, T/C [27] was 100%. For the same compound, the viability, T/C [28] was 97.7%, the viability, T/C [29] was 105% and the viability, T/C [30] was 104%. The viability, T/C [31] was 91.4%, the viability, T/C [32] was 94.8% and the viability, T/C [33] was 89.9%. It also gave a viability, T/C [34] of 97.4%, a viability, T/C [35] of 99.8% and a viability, T/C [36] of 86.6%.
`CC(C)n1nc(-c2ccc3oc(N)nc3c2)c2c(N)ncnc21` + CC(Nc1ncnc2nc[nH]c12)c1cc2cccc(Cl)c2c(=O)n1-c1ccccc1 gave an IC50 (second compound 0.0316 µM) of over 0.1 µM, an IC50 (second compound 0.1 µM) of over 0.1 µM and an IC50 (second compound 0.316 µM) of over 0.1 µM. It also gave an IC50 (second compound 1 µM) of over 0.1 µM, an IC50 (second compound 3.16 µM) of over 0.1 µM and an IC50 (second compound 10 µM) of over 0.1 µM. For the same compound, the viability, T/C [1] was 87.4%, the viability, T/C [2] was 101% and the viability, T/C [3] was 96%. The viability, T/C [4] was 76.7%, the viability, T/C [5] was 66.4% and the viability, T/C [6] was 59.6%. For the same compound, the viability, T/C [7] was 97.8%, the viability, T/C [8] was 88.2% and the viability, T/C [9] was 78%. For the same compound, the viability, T/C [10] was 72.9%, the viability, T/C [11] was 77.4% and the viability, T/C [12] was 62.3%. It also gave a viability, T/C [13] of 101%, a viability, T/C [14] of 110% and a viability, T/C [15] of 105%. The viability, T/C [16] was 92.7%, the viability, T/C [17] was 65.9% and the viability, T/C [18] was 56.4%. It also gave a viability, T/C [19] of 111%, a viability, T/C [20] of 97.8% and a viability, T/C [21] of 84.9%. For the same compound, the viability, T/C [22] was 88.5%, the viability, T/C [23] was 63% and the viability, T/C [24] was 59.2%. For the same compound, the viability, T/C [25] was 87.8%, the viability, T/C [26] was 101% and the viability, T/C [27] was 94.6%. For the same compound, the viability, T/C [28] was 75.2%, the viability, T/C [29] was 66.8% and the viability, T/C [30] was 61.2%. It also gave a viability, T/C [31] of 91.3%, a viability, T/C [32] of 92% and a viability, T/C [33] of 88.9%. It also gave a viability, T/C [34] of 80.3%, a viability, T/C [35] of 68.9% and a viability, T/C [36] of 63.6%.
Work on `CCCS(=O)(=O)Nc1ccc(F)c(C(=O)c2c[nH]c3ncc(-c4ccc(Cl)cc4)cc23)c1F` + CC(Nc1ncnc2nc[nH]c12)c1cc2cccc(Cl)c2c(=O)n1-c1ccccc1 yielded an IC50 (second compound 0.0316 µM) of over 10 µM, an IC50 (second compound 0.1 µM) of over 10 µM and an IC50 (second compound 0.316 µM) of over 10 µM. It also gave an IC50 (second compound 1 µM) of over 10 µM, an IC50 (second compound 3.16 µM) of over 10 µM and an IC50 (second compound 10 µM) of over 10 µM. The viability, T/C [5] was 96.5%, the viability, T/C [6] was 112% and the viability, T/C [37] was 103%. It also gave a viability, T/C [38] of 94.8%, a viability, T/C [39] of 85.1% and a viability, T/C [40] of 110%. For the same compound, the viability, T/C [11] was 110%, the viability, T/C [12] was 110% and the viability, T/C [41] was 97.3%. For the same compound, the viability, T/C [42] was 90.6%, the viability, T/C [43] was 107% and the viability, T/C [44] was 100%. The viability, T/C [17] was 94.6%, the viability, T/C [18] was 88.6% and the viability, T/C [45] was 99.4%. The viability, T/C [46] was 101%, the viability, T/C [47] was 90.9% and the viability, T/C [48] was 105%. The viability, T/C [23] was 89.5%, the viability, T/C [24] was 104% and the viability, T/C [49] was 96.2%. It also gave a viability, T/C [50] of 90.6%, a viability, T/C [51] of 96.7% and a viability, T/C [52] of 96.6%. It also gave a viability, T/C [29] of 97%, a viability, T/C [30] of 104% and a viability, T/C [53] of 90%. It also gave a viability, T/C [54] of 100%, a viability, T/C [55] of 87.6% and a viability, T/C [56] of 87.4%. It also gave a viability, T/C [35] of 101%, a viability, T/C [36] of 80.1% and a viability, T/C [57] of 79.8%. It also gave a viability, T/C [58] of 97%, a viability, T/C [59] of 90.3% and a viability, T/C [60] of 92.3%.
With `CNC(=O)c1ccc(N2C(=S)N(c3ccc(C#N)c(C(F)(F)F)c3)C(=O)C2(C)C)cc1F` + CC(Nc1ncnc2nc[nH]c12)c1cc2cccc(Cl)c2c(=O)n1-c1ccccc1 the IC50 (second compound 0.0316 µM) was over 10 µM, the IC50 (second compound 0.1 µM) was over 10 µM and the IC50 (second compound 0.316 µM) was over 10 µM. For the same compound, the IC50 (second compound 1 µM) was over 10 µM, the IC50 (second compound 3.16 µM) was over 10 µM and the IC50 (second compound 10 µM) was over 10 µM. For the same compound, the viability, T/C [5] was 90.9%, the viability, T/C [6] was 92.1% and the viability, T/C [37] was 107%. For the same compound, the viability, T/C [38] was 92.6%, the viability, T/C [39] was 101% and the viability, T/C [40] was 85.7%. The viability, T/C [11] was 97.6%, the viability, T/C [12] was 99.6% and the viability, T/C [41] was 93.4%. For the same compound, the viability, T/C [42] was 109%, the viability, T/C [43] was 109% and the viability, T/C [44] was 106%. It also gave a viability, T/C [17] of 94.9%, a viability, T/C [18] of 104% and a viability, T/C [45] of 106%. It also gave a viability, T/C [46] of 98.4%, a viability, T/C [47] of 107% and a viability, T/C [48] of 96.2%. The viability, T/C [23] was 97%, the viability, T/C [24] was 92.1% and the viability, T/C [49] was 102%. It also gave a viability, T/C [50] of 92.4%, a viability, T/C [51] of 99.2% and a viability, T/C [52] of 99.7%. For the same compound, the viability, T/C [29] was 89.4%, the viability, T/C [30] was 114% and the viability, T/C [53] was 94%. It also gave a viability, T/C [54] of 103%, a viability, T/C [55] of 101% and a viability, T/C [56] of 93.2%. The viability, T/C [35] was 103%, the viability, T/C [36] was 92% and the viability, T/C [57] was 93%. For the same compound, the viability, T/C [58] was 96.6%, the viability, T/C [59] was 107% and the viability, T/C [60] was 109%.
